# Test results from ChEMBL document CHEMBL2177083, “Enhanced in vitro biological activity of synthetic 2-(2-pyridyl) ethyl isothiocyanate compared to natural 4-(methylsulfinyl) butyl isothiocyanate” (J Med Chem, 2012).
# The source made the active and inactive calls. No cut-off for these calls is given here.
# How the values were obtained:
# [1] = Induction of p21 protein expression in human PNT1A cells at 50 uM incubated for 8 hrs by Western blotting; assay type: cell-based
# PC-3 [2] = experiment: Induction of p21 protein expression in human PC3 cells at 50 uM incubated for 8 hrs by Western blotting relative to untreated control; assay type: functional, cell-based
# PNT1A [3] = experiment: Increase in systemic lupus erythematosus related gene expression in human PNT1A cells at 10 uM incubated for 8 hrs by Affymetrix human exon array relative to untreated control; assay type: functional
# PNT1A [4] = experiment: Increase in cytokine-cytokine receptor interaction related gene expression in human PNT1A cells at 10 uM incubated for 8 hrs by Affymetrix human exon array relative to untreated control; assay type: functional
# PNT1A [5] = experiment: Increase in apoptosis related gene expression in human PNT1A cells at 10 uM incubated for 8 hrs by Affymetrix human exon array relative to untreated control; assay type: functional
# [6] = Induction of p21 protein expression in human PNT1A cells at 10 uM incubated for 8 hrs by Western blotting; assay type: cell-based
# [7] = Antiproliferative activity against human PNT1A cells at 50 uM incubated for 24 hrs by BrdU incorporation assay; assay type: cell-based
# PC-3 [8] = experiment: Cytotoxicity against human PC3 cells incubated for 24 hrs by WST1 dye reduction assay; conditions: PC-3, 24 h
# DU-145 = experiment: Cytotoxicity against human DU145 cells incubated for 24 hrs by WST1 dye reduction assay; conditions: DU-145, 24 h
# HepG2 = experiment: Cytotoxicity against human HepG2 cells incubated for 24 hrs by WST1 dye reduction assay; conditions: HepG2, 24 h
# Caco-2 = experiment: Cytotoxicity against human Caco2 cells incubated for 24 hrs by WST1 dye reduction assay; conditions: Caco-2, 24 h
# [9] = Binding affinity to insulin B chain N-terminal pentapeptide assessed as compound-insulin adduct formation by LC-MS method
# [10] = Binding affinity to insulin A chain N-terminal pentapeptide assessed as compound-insulin adduct formation by LC-MS method
# PC-3 [11] = conditions: Homo sapiens, 25 uM
# Description: Inhibition of cell proliferation of human PC3 cells at 25 uM incubated for 24 hrs by BrdU incorporation assay
# PC-3 [12] = experiment: Increase in one carbon pool by folate related gene expression in human PC3 cells at 10 uM incubated for 8 hrs by Affymetrix human exon array relative to untreated control; assay type: functional
# PC-3 [13] = experiment: Increase in ABC transporters related gene expression in human PC3 cells at 10 uM incubated for 8 hrs by Affymetrix human exon array relative to untreated control; assay type: functional
# PC-3 [14] = experiment: Increase in nucleotide excision repair related gene expression in human PC3 cells at 10 uM incubated for 8 hrs by Affymetrix human exon array relative to untreated control; assay type: functional
# PC-3 [15] = experiment: Increase in systemic lupus erythematosus related gene expression in human PC3 cells at 10 uM incubated for 8 hrs by Affymetrix human exon array relative to untreated control; assay type: functional
# PC-3 [16] = experiment: Increase in aminoacyl-tRNA biosynthesis related gene expression in human PC3 cells at 10 uM incubated for 8 hrs by Affymetrix human exon array relative to untreated control; assay type: functional
# PC-3 [17] = experiment: Increase in base excision repair related gene expression in human PC3 cells at 10 uM incubated for 8 hrs by Affymetrix human exon array relative to untreated control; assay type: functional
# PC-3 [18] = experiment: Increase in homologous recombination related gene expression in human PC3 cells at 10 uM incubated for 8 hrs by Affymetrix human exon array relative to untreated control; assay type: functional
# PC-3 [19] = experiment: Increase in mismatch repair related gene expression in human PC3 cells at 10 uM incubated for 8 hrs by Affymetrix human exon array relative to untreated control; assay type: functional
# PC-3 [20] = experiment: Increase in pyrimidine metabolism related gene expression in human PC3 cells at 10 uM incubated for 8 hrs by Affymetrix human exon array relative to untreated control; assay type: functional
# PC-3 [21] = experiment: Increase in glycolysis/gluconeogenesis related gene expression in human PC3 cells at 10 uM incubated for 8 hrs by Affymetrix human exon array relative to untreated control; assay type: functional
# PC-3 [22] = experiment: Increase in lysine degradation related gene expression in human PC3 cells at 10 uM incubated for 8 hrs by Affymetrix human exon array relative to untreated control; assay type: functional
# PC-3 [23] = experiment: Increase in alanine and aspartate metabolism related gene expression in human PC3 cells at 10 uM incubated for 8 hrs by Affymetrix human exon array relative to untreated control; assay type: functional
# PC-3 [24] = experiment: Increase in colorectal cancer related gene expression in human PC3 cells at 10 uM incubated for 8 hrs by Affymetrix human exon array relative to untreated control; assay type: functional
# PC-3 [25] = experiment: Increase in small cell lung cancer related gene expression in human PC3 cells at 10 uM incubated for 8 hrs by Affymetrix human exon array relative to untreated control; assay type: functional
# PC-3 [26] = experiment: Increase in chronic myeloid leukemia related gene expression in human PC3 cells at 10 uM incubated for 8 hrs by Affymetrix human exon array relative to untreated control; assay type: functional
# PC-3 [27] = experiment: Increase in prostate cancer related gene expression in human PC3 cells at 10 uM incubated for 8 hrs by Affymetrix human exon array relative to untreated control; assay type: functional
# PC-3 [28] = experiment: Increase in glioma related gene expression in human PC3 cells at 10 uM incubated for 8 hrs by Affymetrix human exon array relative to untreated control; assay type: functional
# PC-3 [29] = experiment: Increase in TGF-beta signaling pathway related gene expression in human PC3 cells at 10 uM incubated for 8 hrs by Affymetrix human exon array relative to untreated control; assay type: functional
# PC-3 [30] = experiment: Increase in epithelial cell signaling in Helicobacter pylori infection related gene expression in human PC3 cells at 10 uM incubated for 8 hrs pre-treated for 1 hr with 50 uM PI3K inhibitor LY294002 by Affymetrix human exon array relative to untreated control; assay type: functional
# PC-3 [31] = experiment: Increase in ErbB signaling pathway related gene expression in human PC3 cells at 10 uM incubated for 8 hrs by Affymetrix human exon array relative to untreated control; assay type: functional
# PC-3 [32] = experiment: Increase in p53 signaling pathway related gene expression in human PC3 cells at 10 uM incubated for 8 hrs by Affymetrix human exon array relative to untreated control; assay type: functional
# PC-3 [33] = experiment: Increase in cell cycle related gene expression in human PC3 cells at 10 uM incubated for 8 hrs by Affymetrix human exon array relative to untreated control; assay type: functional
# PC-3 [34] = experiment: Increase in DNA replication related gene expression in human PC3 cells at 10 uM incubated for 8 hrs by Affymetrix human exon array relative to untreated control; assay type: functional
# PNT1A [35] = experiment: Increase in axon guidance related gene expression in human PNT1A cells at 10 uM incubated for 8 hrs by Affymetrix human exon array relative to untreated control; assay type: functional
# PNT1A [36] = experiment: Increase in glutathione metabolism related gene expression in human PNT1A cells at 10 uM incubated for 8 hrs by Affymetrix human exon array relative to untreated control; assay type: functional
# PNT1A [37] = experiment: Increase in glycine, serine, and threonine metabolism related gene expression in human PNT1A cells at 10 uM incubated for 8 hrs by Affymetrix human exon array relative to untreated control; assay type: functional
# PC-3 [38] = experiment: Induction of p21 protein expression in human PC3 cells at 10 uM incubated for 8 hrs by Western blotting in presence of 50 uM PI3K inhibitor LY294002 relative to untreated control; assay type: functional
# PC-3 [39] = experiment: Inhibition of cell proliferation of human PC3 cells at 10 uM incubated for 24 hrs by BrdU incorporation assay; assay type: functional; conditions: PC-3, 24 h
# PC-3 [40] = experiment: Increase in apoptosis gene expression in human PC3 cells at 10 uM incubated for 8 hrs by Affymetrix human exon array relative to untreated control; assay type: functional
smiles,measurement,setting,value
O=c1cc(N2CCOCC2)oc2c(-c3ccccc3)cccc12 [LY-294002],Activity,[1],Toxic
same,Activity,PC-3 [2],Active
C[S+]([O-])CCCCN=C=S (stereo not drawn) [SULFORAPHANE],fold change (FC),PNT1A [3],4.3
same,fold change (FC),PNT1A [4],3.3
same,fold change (FC),PNT1A [5],4.8
same,Activity,[6],Non-toxic
same,Activity,[7],Non-toxic
same,IC50,PC-3 [8],32.4 µM
same,IC50,DU-145,13.8 µM
same,IC50,HepG2,24.9 µM
same,IC50,Caco-2,79.8 µM
same,Activity,[9],Active
same,Activity,[10],Active
same,inhibition,PC-3 [11],Active
S=C=NCCc1ccccn1,fold change (FC),PC-3 [12],2.8
same,fold change (FC),PC-3 [13],1.6
same,fold change (FC),PC-3 [14],1.8
same,fold change (FC),PC-3 [15],1.8
same,fold change (FC),PC-3 [16],1.8
same,fold change (FC),PC-3 [17],2.1
same,fold change (FC),PC-3 [18],2.4
same,fold change (FC),PC-3 [19],2.6
same,fold change (FC),PC-3 [20],1.6
same,fold change (FC),PC-3 [21],1.6
same,fold change (FC),PC-3 [22],1.8
same,fold change (FC),PC-3 [23],2
same,fold change (FC),PC-3 [24],1.5
same,fold change (FC),PC-3 [25],1.6
same,fold change (FC),PC-3 [26],1.9
same,fold change (FC),PC-3 [27],1.9
same,fold change (FC),PC-3 [28],1.9
same,fold change (FC),PC-3 [29],1.5
same,fold change (FC),PC-3 [30],1.6
same,fold change (FC),PC-3 [31],1.6
same,fold change (FC),PC-3 [32],2.1
same,fold change (FC),PC-3 [33],2.6
same,fold change (FC),PC-3 [34],3.1
same,fold change (FC),PNT1A [35],1.9
same,fold change (FC),PNT1A [36],2.8
same,fold change (FC),PNT1A [37],3.1
same,fold change (FC),PNT1A [3],3.6
same,fold change (FC),PNT1A [5],2.5
same,fold change (FC),PC-3 [38],8
same,Activity,[6],Non-toxic
same,inhibition at 10 µM,PC-3 [39],> 80%
same,Activity,[7],Non-toxic
same,IC50,PC-3 [8],12.8 µM
same,IC50,DU-145,4.44 µM
same,IC50,HepG2,15.3 µM
same,IC50,Caco-2,15.2 µM
same,Activity,[9],Active
same,Activity,[10],Active
same,fold change (FC),PC-3 [40],1.9
